Molecular target: T1, recombinant human 5-HT5A receptor (Homo sapiens, UniProt P47898)
T1 construct: expressed in transfected cells; host or cells: Human Embryonic Kidney-EBNA (HEK-EBNA) cells, transient cDNA expression, membranes
Test: [3H]LSD radioligand binding assay, recombinant human 5-HT5A receptor in HEK-EBNA cell membranes
Details: [3H]LSD approx. 1 nM; membranes from HEK-EBNA cells transiently expressing 5-HT5A; Ki from IC50 by Cheng-Prussoff equation
Procedure: A [^3H]LSD radioligand binding assay was used to determine the affinity of the compounds for the recombinant human 5-HT5A receptor, in membranes from transiently (cDNA) expressed 5-HT5A receptors in Human Embryonic Kidney-EBNA (HEK-EBNA) cells. Assay buffer consisted of Tris (50 mM) buffer containing 1 mM EGTA, 10 mM MgCl2 (pH 7.4) and 10 μM pargyline. The binding assay was carried out in 96-well-plates in the presence of [^3H]LSD (approximately 1 nM), approximately 2 μg/well of membrane protein, and 0.5 mg of Ysi-poly-1-lysine SPA beads in a final volume of 200 μl of buffer. Non-specific binding was defined using methiothepin 2 μM. Compounds were tested at 10 concentrations. All assays were conducted in duplicate and repeated at least two times. Assay plates were incubated for 120 min at room temperature before centrifugation. Bound ligand was determined using a Packard Topcount scintillation counter. IC50 values were calculated using a non-linear curve fitting program and Ki values calculated using the Cheng-Prussoff equation. The activity of representative compounds (≦0.05 μM) is described in the table below: […]

T1 sequence (P47898 whole entry): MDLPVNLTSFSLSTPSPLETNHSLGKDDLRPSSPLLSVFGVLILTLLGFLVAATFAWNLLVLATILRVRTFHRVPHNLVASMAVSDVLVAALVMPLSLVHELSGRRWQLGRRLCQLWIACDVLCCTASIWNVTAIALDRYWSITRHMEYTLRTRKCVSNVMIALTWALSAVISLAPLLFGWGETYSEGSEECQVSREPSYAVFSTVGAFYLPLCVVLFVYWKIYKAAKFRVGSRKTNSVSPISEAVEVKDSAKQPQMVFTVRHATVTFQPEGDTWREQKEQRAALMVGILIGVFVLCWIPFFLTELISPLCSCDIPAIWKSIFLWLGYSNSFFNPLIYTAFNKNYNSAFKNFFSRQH

A Ki of 6.34 nM was found for `COc1cccc2c1N=C(N)NC2C` (centres unmarked) [Example 1, 8-Methoxy-4-methyl-3,4-dihydro-quinazolin-2-ylamine] in this work.

A Ki of 9.96 nM was found for `CC(C)Oc1cccc2c1N=C(N)NC2C` (centres unmarked) [Example 2, 8-Isopropoxy-4-methyl-3,4-dihydro-quinazolin-2-ylamine] in this work.

A Ki of 14.1 nM was found for `CCOc1cccc2c1N=C(NCC(F)F)NC2C` (centres unmarked) [Example 3, (2,2-Difluoro-ethyl)-(8-ethoxy-4-methyl-3,4-dihydro-quinazolin-2-yl)-amine] in this work.

A Ki of 23.2 nM was found for `CC(C)Oc1cccc2c1N=C(NCC(F)F)NC2C` (centres unmarked) [Example 4, (2,2-Difluoro-ethyl)-(8-isopropoxy-4-methyl-3,4-dihydro-quinazolin-2-yl)-amine] in this work.

A Ki of 25.4 nM was found for `CNC1=Nc2c(OC(C)C)cccc2C(C)N1` (centres unmarked) [Example 5, (8-Isopropoxy-4-methyl-3,4-dihydro-quinazolin-2-yl)-methyl-amine] in this work.

A Ki of 28.2 nM was found for `COc1cccc2c1N=C(NCC(F)F)NC2C` (centres unmarked) [Example 6, (2,2-Difluoro-ethyl)-(8-methoxy-4-methyl-3,4-dihydro-quinazolin-2-yl)-amine] in this work.

A Ki of 34.5 nM was found for `CCOc1cccc2c1N=C(NC)NC2C` (centres unmarked) [Example 7, (8-Ethoxy-4-methyl-3,4-dihydro-quinazolin-2-yl)-methyl-amine] in this work.

A Ki of 37.2 nM was found for `CCOc1cccc2c1N=C(N)NC2C` (centres unmarked) [Example 8, 8-Ethoxy-4-methyl-3,4-dihydro-quinazolin-2-ylamine] in this work.

A Ki of 38.4 nM was found for `CNC1=Nc2c(OC)cccc2C(C)N1` (centres unmarked) [Example 9, (8-Methoxy-4-methyl-3,4-dihydro-quinazolin-2-yl)-methyl-amine] in this work.

A Ki of 16.2 nM was found for `CNC1=Nc2c(OC3CCCC3)cccc2C(C)N1` (centres unmarked) [Example 16, (8-Cyclopentyloxy-4-methyl-3,4-dihydro-quinazolin-2-yl)-methyl-amine] in this work.

A Ki of 22.4 nM was found for `CC1NC(NCC(F)F)=Nc2c(OC3CCCC3)cccc21` (centres unmarked) [Example 17, (8-Cyclopentyloxy-4-methyl-3,4-dihydro-quinazolin-2-yl)-(2,2-difluoro-ethyl)-amine] in this work.

A Ki of 4.7 nM was found for `COc1cc(Cl)c(C)c2c1N=C(N)NC2C` (centres unmarked) [Example 18, 6-Chloro-8-methoxy-4,5-dimethyl-3,4-dihydro-quinazolin-2-ylamine] in this work.

A Ki of 47.5 nM was found for `COc1cc(Cl)c(C)c2c1N=C(NC1CCC1)NC2C` (centres unmarked) [Example 19, (6-Chloro-8-methoxy-4,5-dimethyl-3,4-dihydro-quinazolin-2-yl)-cyclobutyl-amine] in this work.

A Ki of 42.6 nM was found for `CNC1=Nc2c(OC)cc(Cl)c(C)c2C(C)N1` (centres unmarked) [Example 20, (6-Chloro-8-methoxy-4,5-dimethyl-3,4-dihydro-quinazolin-2-yl)-methyl-amine] in this work.

From patent US7790733B2, “8-alkoxy or cycloalkoxy-4-methyl-3,4-dihydro-quinazolin-2-ylamines” (Hoffman-La Roche Inc., priority 2005, dated 2010)
